These are literature values, as cited in patent US20100209495A1, “GRANULATES, PROCESS FOR PREPARING THEM AND PHARMACEUTICAL PRODUCTS CONTAINING THEM” (Mylan Laboratories, Inc., priority 2008, published 2010).

Molecules are shown by their SMILES.

For the series the following is noted: at 37° C.

As for `CC(O)(CS(=O)(=O)c1ccc(F)cc1)C(=O)Nc1ccc(C#N)c(C(F)(F)F)c1` (stereo not shown) [bicalutamide, N-[4-cyano-3-(trifluoromethyl)phenyl]-3-(4-fluorophenyl) sulfonyl-2-hydroxy-2-methyl-propanamide], the water solubility is 5 mg/1000 ml.
